From patent EP3383875B1, “3-PYRIMIDINYL PYRROLO [2,3-B] PYRIDINE AS ANTICANCER AGENTS AND THE PROCESS FOR THE PREPARATION THEREOF” (Council Of Scientific & Industrial Research, priority 2015, dated 2017)
Read-outs that look alike come from different tables or passages of the source.

Experiments:
PC-3 = test: MTT assay on cancer cell line PC-3; assay type: cell-based, human; settings: Homo sapiens
Method: (§1) Cell culture, growth conditions and treatments. […] Different molecules were dissolved in DMSO and were delivered to cell cultures in complete medium.

MCF-7 = test: MTT assay on cancer cell line MCF-7; assay type: cell-based, Human; settings: Homo sapiens
Method: as §1

HCT-116 = test: MTT assay on cancer cell line HCT-116; assay type: cell-based, human; settings: Homo sapiens
Method: as §1

SHSY-5Y = test: MTT assay on cancer cell line SHSY-5Y; assay type: cell-based, human; settings: Homo sapiens, SH-SY5Y
Method: as §1

MDA-MB435 = test: MTT assay on cancer cell line MDA-MB435; assay type: cell-based, Human; settings: Homo sapiens, MDA-MB-435
Method: as §1

CDK-2/cyclin A = CDK-2/cyclin A (Homo sapiens, UniProt P24941); test: CDK inhibition assay, CDK-2/cyclin A against Histone HI, 33P-ATP; assay type: biochemical; settings: at 500 nM
Outline: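 CDK-2/cyclin A (5-20 mU) phosphorylating Histone HI (1 mg/ml) in 50 mM Hepes pH 7.5, 100 mM NaCl, 10 mM Mg acetate, 0.02 mM [33P-γ-ATP], 30 min at room temperature. Stopped with orthophosphoric acid, captured on P81 filters for radiometric readout.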

CDK-9/Cyclin T1 = CDK-9/Cyclin T1 (Homo sapiens, UniProt P50750); test: CDK inhibition assay, CDK-9/Cyclin T1 against substrate peptide, 33P-ATP; assay type: biochemical; settings: at 500 nM
Method: (50-1000 cpm/pmole) and incubated for 30 min at room temperature. Assays were stopped by addition of 5 µl of 0.5 M (3%) orthophosphoric acid and then harvested onto P81 Unifilter plates with a wash buffer of 50 mM orthophosphoric acid.

[1] = Table 8, read-out: In vitro cell inhibition, % of inhibition, PC-3
[2] = MCF7, MCF-7, Table 8, read-out: In vitro cell inhibition, % of inhibition, MCF-7
[3] = MCF7, read-out: inhibition against MCF-7 cell lines
[4] = at 10µM, Table 8, read-out: In vitro cell inhibition, % of inhibition, HCT-116
[5] = SHSY-5Y, Table 8, read-out: In vitro cell inhibition, % of inhibition, SHSY-5Y
[6] = MDA-MB435, at 10µM, Table 8, read-out: In vitro cell inhibition, % of inhibition, MDA-MB435
[7] = Table-7, read-out: In vitro CDK2 % of inhibition
[8] = read-out: inhibition against CDK2
[9] = Table-7, read-out: In vitro CDK9 % of inhibition
[10] = read-out: inhibition against CDK9
[11] = read-out: inhibition against PC-3 cell lines
[12] = at 10 µM, read-out: inhibition against HCT-116 cell lines
[13] = read-out: inhibition against SHSY-5Y cell lines
[14] = at 10 µM, read-out: inhibition against MDAMB-435 cell lines
[15] = Table-6, read-out: In vitro CDK2 % of inhibition
[16] = Table-6, read-out: In vitro CDK9 % of inhibition

Chain of CDK-9/Cyclin T1 (P50750 whole entry): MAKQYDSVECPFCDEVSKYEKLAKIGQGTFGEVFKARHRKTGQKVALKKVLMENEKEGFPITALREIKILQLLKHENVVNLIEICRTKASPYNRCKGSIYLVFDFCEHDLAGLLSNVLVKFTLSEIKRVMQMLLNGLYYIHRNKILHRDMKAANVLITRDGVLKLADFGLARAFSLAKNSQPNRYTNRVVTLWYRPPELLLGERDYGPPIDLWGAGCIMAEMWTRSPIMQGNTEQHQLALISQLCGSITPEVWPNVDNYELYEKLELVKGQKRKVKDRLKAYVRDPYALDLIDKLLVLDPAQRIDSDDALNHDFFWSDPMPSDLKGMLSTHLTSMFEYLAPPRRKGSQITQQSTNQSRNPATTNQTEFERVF
Chain of CDK-9/Cyclin T1 (O60563 whole entry partner): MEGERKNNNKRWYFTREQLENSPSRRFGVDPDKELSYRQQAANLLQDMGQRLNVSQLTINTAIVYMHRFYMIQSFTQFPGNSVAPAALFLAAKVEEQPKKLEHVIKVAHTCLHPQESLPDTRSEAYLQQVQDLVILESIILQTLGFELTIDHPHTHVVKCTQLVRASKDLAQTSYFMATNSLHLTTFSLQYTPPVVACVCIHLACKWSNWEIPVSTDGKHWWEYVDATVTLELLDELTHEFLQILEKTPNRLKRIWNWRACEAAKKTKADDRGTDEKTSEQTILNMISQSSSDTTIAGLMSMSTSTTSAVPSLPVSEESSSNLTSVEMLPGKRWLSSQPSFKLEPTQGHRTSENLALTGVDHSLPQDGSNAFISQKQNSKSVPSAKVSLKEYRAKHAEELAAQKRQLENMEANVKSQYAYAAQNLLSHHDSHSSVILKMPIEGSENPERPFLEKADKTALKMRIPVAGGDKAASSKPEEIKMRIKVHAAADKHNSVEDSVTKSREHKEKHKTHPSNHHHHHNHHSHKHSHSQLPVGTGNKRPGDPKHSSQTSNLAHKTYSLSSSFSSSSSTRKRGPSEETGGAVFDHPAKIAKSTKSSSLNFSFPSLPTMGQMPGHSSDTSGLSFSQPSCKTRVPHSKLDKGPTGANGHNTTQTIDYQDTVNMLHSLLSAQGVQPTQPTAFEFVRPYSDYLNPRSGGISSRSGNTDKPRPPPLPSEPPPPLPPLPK

Row | inhibition at 0.5 µM (CDK-2/cyclin A; [7]) [%] | inhibition at 0.5 µM (CDK-2/cyclin A; [8]) [%] | inhibition at 0.5 µM (CDK-9/Cyclin T1; [9]) [%] | inhibition at 0.5 µM (CDK-9/Cyclin T1; [10]) [%] | inhibition at 0.5 µM (CDK-2/cyclin A; [15]) [%] | inhibition at 0.5 µM (CDK-9/Cyclin T1; [16]) [%] | Structure (SMILES) | inhibition at 10 µM (PC-3; [1]) [%] | inhibition at 10 µM (MCF-7; [2]) [%] | inhibition at 10 µM (MCF-7; [3]) [%] | inhibition at 10 µM (HCT-116; [4]) [%] | inhibition at 10 µM (SHSY-5Y; [5]) [%] | inhibition at 10 µM (MDA-MB435; [6]) [%] | inhibition at 10 µM (PC-3; [11]) [%] | inhibition at 10 µM (SHSY-5Y; [13]) [%] | also measured
1 | > 70 | > 70 | > 70 | > 70 |  |  | COc1ccc(-c2cnc3[nH]cc(-c4ccnc(NC5CCCCCC5)n4)c3c2)cc1 [1A51, N-cycloheptyl-4-(5-(4-methoxyphenyl)-1H-pyrrolo[2,3-b]pyridin-3-yl)pyrimidin-2-amine] | < 50 | > 70 | > 70 | > 50 | > 50 | < 50 |  |  | 
2 |  | > 70 |  | > 70 | > 70 | > 70 | COc1ccc(-c2cnc3[nH]cc(-c4ccnc(NC5CC5)n4)c3c2)cc1 [1A11, N-cyclopropyl-4-(5-(4-methoxyphenyl)-1H-pyrrolo[2,3-b]pyridin-3-yl)pyrimidin-2-amine] | > 50 | > 70 | > 70 | > 70 | > 70 | > 70 | > 50 | > 70 | inhibition at 10 µM (HCT-116; [12]): > 70%; inhibition at 10 µM (MDA-MB435; [14]): > 70%
3 |  | > 50 |  | > 50 | > 50 | > 50 | Fc1ccc(-c2cnc3[nH]cc(-c4ccnc(NC5CCCCCC5)n4)c3c2)cc1 [1A42, N-cycloheptyl-4-(5-(4-fluorophenyl)-1H-pyrrolo[2,3-b]pyridin-3-yl)pyrimidin-2-amine] | > 50 | < 50 | < 50 | > 50 | > 70 | > 70 | > 50 | > 70 | 
4 |  | > 50 |  | > 50 | > 50 | > 50 | c1cncc(-c2cnc3[nH]cc(-c4ccnc(NC5CC5)n4)c3c2)c1 [1A15, N-cyclopropyl-4-(5-(pyridin-3-yl)-1H-pyrrolo[2,3-b]pyridin-3-yl)pyrimidin-2-amine] | > 50 | > 70 | > 70 | > 70 | > 70 | > 70 | > 50 | > 70 | inhibition at 10 µM (HCT-116; [12]): > 70%; inhibition at 10 µM (MDA-MB435; [14]): > 70%
5 | > 70 | > 70 | > 70 | > 70 |  |  | Nc1nccc(-c2c[nH]c3ncc(-c4cccc5ccccc45)cc23)n1 [1C14, 4-(5-(naphthalen-1-yl)-1H-pyrrolo[2,3-b]pyridin-3-yl)pyrimidin-2-amine] |  |  | > 50 |  |  |  |  |  | inhibition at 10 µM (PC-3; Table 9 (for reference), read-out: In vitro cell inhibition, % of inhibition, PC-3): > 70%; inhibition at 10 µM (MCF-7; MCF7, MCF-7, Table 9 (for reference), read-out: In vitro cell inhibition, % of inhibition, MCF-7): > 50%; inhibition at 10 µM (HCT-116; at 10µM, Table 9 (for reference), read-out: In vitro cell inhibition, % of inhibition, HCT-116): > 70%; inhibition at 10 µM (SHSY-5Y; SHSY-5Y, Table 9 (for reference), read-out: In vitro cell inhibition, % of inhibition, SHSY-5Y): > 50%; inhibition at 10 µM (MDA-MB435; MDA-MB435, at 10µM, Table 9 (for reference), read-out: In vitro cell inhibition, % of inhibition, MDA-MB435): > 50%
6 | > 50 |  | > 50 |  |  |  | Fc1cccc(-c2cnc3[nH]cc(-c4ccnc(NCCc5ccccc5)n4)c3c2)c1 [1B5, 4-(5-(3-fluorophenyl)-1H-pyrrolo[2,3-b]pyridin-3-yl)-N-phenethylpyrimidin-2-amine] | > 50 | > 50 | > 50 | > 50 | > 70 | > 50 | > 50 | > 70 | 
7 |  | > 50 |  | > 50 | > 50 | > 50 | COc1ccc(-c2cnc3[nH]cc(-c4ccnc(NC5CCCC5)n4)c3c2)cc1 [1A31, N-cyclopentyl-4-(5-(4-methoxyphenyl)-1H-pyrrolo-[2,3-b]pyridin-3-yl)pyrimidin-2-amine] | > 50 | < 50 | < 50 | > 50 | > 70 | > 50 | > 50 | > 70 | 
8 | > 50 | > 50 | > 50 | > 50 |  |  | COc1ccc(-c2cnc3[nH]cc(-c4ccnc(NCCc5ccccc5)n4)c3c2)cc1 [1B11, 4-(5-(4-methoxyphenyl)-1H-pyrrolo[2,3-b]pyridin-3-yl)-N-phenethylpyrimidin-2-amine] | < 50 | > 50 | > 50 | > 50 | > 50 | > 50 |  |  | 
9 | > 70 | > 70 | > 70 | > 70 |  |  | c1cncc(-c2cnc3[nH]cc(-c4ccnc(NC5CCCCCC5)n4)c3c2)c1 [1A55, N-cycloheptyl-4-(5-(pyridin-3-yl)-1H-pyrrolo[2,3-b]pyridin-3-yl)pyrimidin-2-amine] | > 50 | < 50 | < 50 | > 50 | > 70 | > 50 |  | > 70 | 
10 | > 70 | > 70 | > 70 | > 70 |  |  | Clc1ccc(-c2cnc3[nH]cc(-c4ccnc(NCCc5ccccc5)n4)c3c2)cc1 [1B12, 4-(5-(4-chlorophenyl)-1H-pyrrolo[2,3-b]pyridin-3-yl)-N-phenethylpyrimidin-2-amine] | > 70 | > 50 |  | > 50 | > 70 | < 50 |  | > 70 | 
11 |  | > 70 |  | > 70 | > 70 | > 70 | Fc1ccc(-c2cnc3[nH]cc(-c4ccnc(NC5CC5)n4)c3c2)cc1 [1A2, N-cyclopropyl-4-(5-(4-fluorophenyl)-1H-pyrrolo[2,3-b]pyridin-3-yl)pyrimidin-2-amine] | > 50 | > 70 | > 70 | > 70 | > 70 | > 70 | > 50 | > 70 | inhibition at 10 µM (HCT-116; [12]): > 70%; inhibition at 10 µM (MDA-MB435; [14]): > 70%
12 | > 70 | > 70 | > 70 | > 70 |  |  | c1ccc(CCNc2nccc(-c3c[nH]c4ncc(-c5cccnc5)cc34)n2)cc1 [1B15, N-phenethyl-4-(5-(pyridin-3-yl)-1H-pyrrolo[2,3-b]pyridin-3-yl)pyrimidin-2-amine] | < 50 | > 50 | > 50 | > 50 | > 70 | < 50 |  | > 70 | 
13 |  | > 50 |  | > 50 | > 50 | > 50 | c1ccc2c(-c3cnc4[nH]cc(-c5ccnc(NC6CC6)n5)c4c3)cccc2c1 [1A14, N-cyclopropyl-4-(5-(naphthalen-1-yl)-1H-pyrrolo[2,3-b]pyridin-3-yl)pyrimidin-2-amine] | > 70 | > 70 | > 70 | > 70 | > 70 | > 70 |  | > 70 | inhibition at 10 µM (HCT-116; [12]): > 70%; inhibition at 10 µM (MDA-MB435; [14]): > 70%
14 |  |  |  |  | > 50 | > 50 | Fc1ccc(-c2cnc3[nH]cc(-c4ccnc(NC5CCCC5)n4)c3c2)cc1 [1A22, N-cyclopentyl-4-(5-(4-fluorophenyl)-1H-pyrrolo[2,3-b]pyridin-3-yl)pyrimidin-2-amine] | > 50 | > 50 | > 50 | > 50 | > 70 | < 50 |  | > 70 | 
